Test results: BindingDB's records for doi:10.1021/acs.jnatprod.0c00251 (University of Halle-Wittenberg, 2020)
Numbered stars: 1 amine (or outer) side, 2 acyl side, 3 side chain; on linkers, the order of the positions; unused ones are H or OH. Bridge positions count the residues as written; N and C are the ends. Square brackets hold non-standard residues; d marks the D form. Peptide text beside a SMILES is read from it. * marks the point of attachment. Adda = CO[C@@H](Cc1ccccc1)[C@@H](C)/C=C(C)/C=C/[C@H](N[*:1])[C@H](C)C(=O)[*:2]; dAsp(3S-Me) = C[C@H](C(=O)[*:3])[C@@H](N[*:1])C(=O)[*:2]; d(γGlu) = O=C(O)[C@@H](CCC(=O)[*:2])N[*:1]; NMeDha = C=C(NC)C(=O)O; Propargyl = C#CC*

Legend:
[1] = Substrate activity at OATP1B3 (unknown origin) expressed in HEK293 cells assessed as cytotoxicity incubated for 48 hrs by sulforhodamine B assay
[2] = Substrate activity at OATP1B1 (unknown origin) expressed in HEK293 cells assessed as cytotoxicity incubated for 48 hrs by sulforhodamine B assay

| Compound | EC50 [1] [nM] | EC50 [2] [nM] |
| --- | --- | --- |
| C=C1C(=O)N[C@H](C)C(=O)N[C@@H](Cc2ccc(OCc3cn(-c4cc5ccc(O)cc5oc4=O)nn3)cc2)C(=O)N[C@@H](C(=O)O)[C@H](C)C(=O)N[C@@H](CCCNC(=N)N)C(=O)N[C@@H](/C=C/C(C)=C/[C@H](C)[C@H](Cc2ccccc2)OC)[C@H](C)C(=O)N[C@@H](C(=O)O)CCC(=O)N1C | 1.4 | 1.7 |
| C#CCOc1ccc(C[C@@H]2NC(=O)[C@@H](C)NC(=O)C(=C)N(C)C(=O)CC[C@H](C(=O)O)NC(=O)[C@@H](C)[C@H](/C=C/C(C)=C/[C@H](C)[C@H](Cc3ccccc3)OC)NC(=O)[C@H](CCCNC(=N)N)NC(=O)[C@@H](C)[C@H](C(=O)O)NC2=O)cc1 (R[Adda][d(γGlu)][NMeDha][dA]Y(Propargyl)[dAsp(3S-Me)]-OH; lactam N-7) | 2.4 | 1.1 |
| C=C1C(=O)N[C@H](C)C(=O)N[C@@H](Cc2ccc(O)cc2)C(=O)N[C@@H](C(=O)O)[C@H](C)C(=O)N[C@@H](CCCNC(=N)N)C(=O)N[C@@H](/C=C/C(C)=C/[C@H](C)[C@H](Cc2ccccc2)OC)[C@H](C)C(=O)N[C@@H](C(=O)O)CCC(=O)N1C (R[Adda][d(γGlu)][NMeDha][dA]Y[dAsp(3S-Me)]-OH; lactam N-7) | 3 | 4.5 |
